According to patent publication US20020115640A1, “Farnesyltransferase inhibitors” (priority 2000, published 2002):

The compounds below were run against T1, farnesyltransferase (Rattus norvegicus, UniProt Q02293+Q04631) (assay: Inhibition of farnesyltransferase (3H-farnesyldiphosphate / H-Ras filter assay)). Details: test compound at 10^−8 M; 3H-farnesyldiphosphate 0.6 μM, H-Ras 5.0 μM, 37° C., 30 minutes.
T1 construct: The enzyme can be purified according to Cell, 62: 81-88 (1990), utilizing steps one, two, and three; from tissue; host or cells: rat brain
T1 sequence (Q02293 whole entry, one chain of several): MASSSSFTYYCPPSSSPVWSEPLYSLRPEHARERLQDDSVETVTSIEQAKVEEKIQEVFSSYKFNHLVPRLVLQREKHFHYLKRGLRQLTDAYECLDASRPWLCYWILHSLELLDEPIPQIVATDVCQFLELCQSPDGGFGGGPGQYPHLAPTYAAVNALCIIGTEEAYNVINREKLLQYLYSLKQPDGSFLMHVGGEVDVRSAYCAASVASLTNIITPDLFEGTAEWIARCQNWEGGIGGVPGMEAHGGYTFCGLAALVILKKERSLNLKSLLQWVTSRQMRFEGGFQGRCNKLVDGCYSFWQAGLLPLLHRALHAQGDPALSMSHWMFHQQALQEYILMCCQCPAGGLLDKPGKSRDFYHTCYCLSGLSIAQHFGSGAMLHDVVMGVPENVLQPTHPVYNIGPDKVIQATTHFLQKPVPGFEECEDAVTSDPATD
Assay type: biochemical
Description: The ability of the compounds of the present invention to inhibit farnesyltransferase can be measured according to the method described in J. Biol. Chem., 266: 14603 (1991) or J. Biol. Chem., 270:660-664 (1995). Procedures for determination of the inhibition of farnesylation of the oncogene protein Ras are described in J. Biol. Chem., 266:15575-15578 (1991) and U.S. Pat. No. 5,245,061. Inhibition of rat brain farnesyltransferase can also be measured in vitro using an Amersham Life Science commercial scintillation proximity assay kit and substituting a biotin-K Ras B fragment (0.1 μM final concentration) for the biotin-lamin substrate provided by Amersham. The enzyme can be purified according to Cell, 62: 81-88 (1990), utilizing steps one, two, and three. […] The percent inhibition of the farnesylation caused by the compounds of the present invention (at 10^−6 M) compared to an uninhibited control sample can be evaluated in the same Amersham test system.
The mixture was brought to 37° C., treated with enzyme, incubated for 30 minutes, treated with 1 M HCl/ethanol (1 mL) to stop the reaction, stirred for 15 minutes at room temperature, diluted with ethanol (2 mL), filtered through a 2.5 cm glass microfiber filter (Whatman) with ethanol rinses (4×2 mL). The glass transferred to a scintillation vial and treated with scintillation fluid (5 mL). The radioisotope retained on the glass fiber filter was counted and reflected the activity of the enzyme.
An inhibition at 0.01 µM of 95% was found for Cn1cncc1C(O)(COc1ccc(C#N)cc1-c1cccc(OC(F)(F)F)c1)c1ccc(C#N)cc1 (centres unmarked) [Example 69, 6-(2-(4-cyanophenyl)-2-hydroxy-2-(1-methyl-1H-imidazol-5-yl)ethoxy)-3′-(trifluoromethoxy)-1,1′-biphenyl-3-carbonitrile] in this work. An inhibition at 0.01 µM of 94% was found for Cn1cncc1C(F)(COc1ccc(C#N)cc1-c1cccc(OC(F)(F)F)c1)c1ccc(C#N)cc1 (centres unmarked) [Example 70, 6-(2-(4-cyanophenyl)-2-fluoro-2-(1-methyl-1H-imidazol-5-yl)ethoxy)-3′-(trifluoromethoxy)-1,1′-biphenyl-3-carbonitrile] in this work. An inhibition at 0.01 µM of 97% was found for Cn1cncc1C(O)(COc1ccc(C#N)cc1-c1ccc(Cl)c(Cl)c1)c1ccc(C#N)cc1 (centres unmarked) [Example 71, 3′,4′-dichloro-6-(2-(4-cyanophenyl)-2-hydroxy-2-(1-methyl-1H-imidazol-5-yl)ethoxy)-1,1′-biphenyl-3-carbonitrile] in this work. An inhibition at 0.01 µM of 94% was found for Cn1cncc1C(F)(COc1ccc(C#N)cc1-c1ccc(Cl)c(Cl)c1)c1ccc(C#N)cc1 (centres unmarked) [Example 72, 3′,4′-dichloro-6-(2-(4-cyanophenyl)-2-fluoro-2-(1-methyl-1H-imidazol-5-yl)ethoxy)-1,1′-biphenyl-3-carbonitrile] in this work. An inhibition at 0.01 µM of 96% was found for Cn1cncc1C(O)(COc1ccc(C#N)cc1-c1cc(Cl)cc(Cl)c1)c1ccc(C#N)cc1 (centres unmarked) [Example 73, 3′,5′-dichloro-6-(2-(4-cyanophenyl)-2-hydroxy-2-(1-methyl-1H-imidazol-5-yl)ethoxy)-1,1′-biphenyl-3-carbonitrile] in this work. An inhibition at 0.01 µM of 95% was found for Cn1cncc1C(F)(COc1ccc(C#N)cc1-c1cc(Cl)cc(Cl)c1)c1ccc(C#N)cc1 (centres unmarked) [Example 74, 3′,5′-dichloro-6-(2-(4-cyanophenyl)-2-fluoro-2-(1-methyl-1H-imidazol-5-yl)ethoxy)-1,1′-biphenyl-3-carbonitrile] in this work. An inhibition at 0.01 µM of 96% was found for Cn1cncc1C(O)(COc1ccc(C#N)cc1-c1cccc(F)c1)c1ccc(C#N)cc1 (centres unmarked) [Example 75, 6-(2-(4-cyanophenyl)-2-hydroxy-2-(1-methyl-1H-imidazol-5-yl)ethoxy)-3′-fluoro-1,1′-biphenyl-3-carbonitrile] in this work. An inhibition at 0.01 µM of 95% was found for Cn1cncc1C(F)(COc1ccc(C#N)cc1-c1cccc(F)c1)c1ccc(C#N)cc1 (centres unmarked) [Example 76, 6-(2-(4-cyanophenyl)-2-fluoro-2-(1-methyl-1H-imidazol-5-yl)ethoxy)-3′-fluoro-1,1′-biphenyl-3-carbonitrile] in this work. An inhibition at 0.01 µM of 98% was found for Cn1cncc1C(O)(COc1ccc(C#N)cc1-c1cccc(Cl)c1)c1ccc(C#N)cc1 (centres unmarked) [Example 77, 3′-chloro-6-(2-(4-cyanophenyl)-2-hydroxy-2-(1-methyl-1H-imidazol-5-yl)ethoxy)-1,1′-biphenyl-3-carbonitrile] in this work. An inhibition at 0.01 µM of 97% was found for Cn1cncc1C(F)(COc1ccc(C#N)cc1-c1cccc(Cl)c1)c1ccc(C#N)cc1 (centres unmarked) [Example 78, 3′-chloro-6-(2-(4-cyanophenyl)-2-fluoro-2-(1-methyl-1H-imidazol-5-yl)ethoxy)-1,1′-biphenyl-3-carbonitrile] in this work. An inhibition at 0.01 µM of 96% was found for Cn1cncc1C(O)(COc1ccc(C#N)cc1-c1ccc2c(c1)OC(F)(F)O2)c1ccc(C#N)cc1 (centres unmarked) [Example 79, 4-(2-(4-cyanophenyl)-2-hydroxy-2-(1-methyl-1H-imidazol-5-yl)ethoxy)-3-(2,2-difluoro-1,3-benzodioxol-5-yl)benzonitrile] in this work. An inhibition at 0.01 µM of 90% was found for Cn1cncc1C(F)(COc1ccc(C#N)cc1-c1ccc2c(c1)OC(F)(F)O2)c1ccc(C#N)cc1 (centres unmarked) [Example 80, 4-(2-(4-cyanophenyl)-2-fluoro-2-(1-methyl-1H-imidazol-5-yl)ethoxy)-3-(2,2-difluoro-1,3-benzodioxol-5-yl)benzonitrile] in this work. An inhibition at 0.01 µM of 90% was found for Cn1cncc1C(O)(COc1ccc(C#N)cc1-c1cccc2ccccc12)c1ccc(C#N)cc1 (centres unmarked) [Example 81, 4-(2-(4-cyanophenyl)-2-hydroxy-2-(1-methyl-1H-imidazol-5-yl)ethoxy)-3-(1-naphthyl)benzonitrile] in this work. An inhibition at 0.01 µM of 15% was found for N#Cc1ccc(C(O)(COc2ccc(C#N)cc2-c2ccc(OC(F)(F)F)cc2)c2cncs2)cc1 (centres unmarked) [Example 82, 6-(2-(4-cyanophenyl)-2-hydroxy-2-(1,3-thiazol-5-yl)ethoxy)-4′-(trifluoromethoxy)-1,1′-biphenyl-3-carbonitrile] in this work. An inhibition at 0.01 µM of 96% was found for Cn1cncc1C(N)(COc1ccc(C#N)cc1-c1ccc(OC(F)(F)F)cc1)c1ccc(C#N)cc1 (centres unmarked) [Example 83, 6-(2-amino-2-(4-cyanophenyl)-2-(1-methyl-1H-imidazol-5-yl)ethoxy)-4′-(trifluoromethoxy)-1,1′-biphenyl-3-carbonitrile] in this work. An inhibition at 0.01 µM of 92% was found for COc1cccc(-c2cc(C#N)ccc2N(C)CC(O)(c2ccc(C#N)cc2)c2cncn2C)c1 (centres unmarked) [Example 84, 6-((2-(4-cyanophenyl)-2-hydroxy-2-(1-methyl-1H-imidazol-5-yl)ethyl)(methyl)amino)-3′-methoxy-1,1′-biphenyl-3-carbonitrile] in this work. An inhibition at 0.01 µM of 65% was found for COc1cccc(-c2cc(C#N)ccc2N(C)CC(F)(c2ccc(C#N)cc2)c2cncn2C)c1 (centres unmarked) [Example 85, 6-((2-(4-cyanophenyl)-2-fluoro-2-(1-methyl-1H-imidazol-5-yl)ethyl)(methyl)amino)-3′-methoxy-1,1′-biphenyl-3-carbonitrile] in this work. An inhibition at 0.01 µM of 94% was found for CN(CC(O)(c1ccc(C#N)cc1)c1cncn1C)c1ccc(C#N)cc1-c1ccc(OC(F)(F)F)cc1 (centres unmarked) [Example 86, 6-((2-(4-cyanophenyl)-2-hydroxy-2-(1-methyl-1H-imidazol-5-yl)ethyl)(methyl)amino)-4′-(trifluoromethoxy)-1,1′-biphenyl-3-carbonitrile] in this work. An inhibition at 0.01 µM of 91% was found for Cc1ccnc(NC(=O)c2cc(C#N)ccc2COC(c2ccc(C#N)cc2)c2cncn2C)c1 (centres unmarked) [Example 87, 5-cyano-2-(((4-cyanophenyl)(1-methyl-1H-imidazol-5-yl)methoxy)methyl)-N-(4-methylpyridin-2-yl)benzamide] in this work. An inhibition at 0.01 µM of 90% was found for Cn1cncc1C(OCc1ccc(C#N)cc1C(=O)Nc1cccc(Cl)c1)c1ccc(C#N)cc1 (centres unmarked) [Example 88, N-(3-chlorophenyl)-5-cyano-2-(((4-cyanophenyl)(1-methyl-1H-imidazol-5-yl)methoxy)methyl)benzamide] in this work. An inhibition at 0.01 µM of 77% was found for CCCn1cc(-c2cc(C#N)ccc2COC(c2ccc(C#N)cc2)c2cncn2C)ccc1=O (centres unmarked) [Example 91, 4-(((4-cyanophenyl)(1-methyl-1H-imidazol-5-yl)methoxy)methyl)-3-(6-oxo-1-propyl-1,6-dihydropyridin-3-yl)benzonitrile] in this work. An inhibition at 0.01 µM of 94% was found for CCCOc1ccc(-c2cc(C#N)ccc2COC(c2ccc(C#N)cc2)c2cncn2C)cn1 (centres unmarked) [Example 92, 4-(((4-cyanophenyl)(1-methyl-1H-imidazol-5-yl)methoxy)methyl)-3-(6-propoxypyridin-3-yl)benzonitrile] in this work.

Same assay, conditions: test compound at 10^−9 M (stated in the cell); 3H-farnesyldiphosphate 0.6 μM, H-Ras 5.0 μM, 37° C., 30 minutes
An inhibition at 0.001 µM of 75% was found for Cn1cncc1C(OCc1ccc(C#N)nc1-c1ccc2c(c1)OC(F)(F)O2)c1ccc(C#N)cc1 (centres unmarked) [Example 89, 5-(((4-cyanophenyl)(1-methyl-1H-imidazol-5-yl)methoxy)methyl)-6-(2,2-difluoro-1,3-benzodioxol-5-yl)pyridine-2-carbonitrile] in this work.
